Test results: patent publication US12544392B2, “Treatment of adenovirus infection or disease associated with adenovirus infection” (SymBio Pharmaceuticals Limited, priority 2023, dated 2026)

Key:
adenovirus (AdV) = experiment: Human clinical study of once-weekly IV BCV (Example 4): viral load of AdV in plasma; format: in vivo; conditions: cohorts 4-6: 0.4, 0.6 or 0.8 mg/kg (20, 30 or 40 mg/dose if body weight ≥50 kg) IV once weekly
Description: A human clinical study on the treatment of AdV infectious disease is conducted according to the following procedure. Patients aged 2 months or older who have asymptomatic AdV infection or AdV disease and have an underlying immunocompromised state, including hematopoietic stem cell transplant recipients before the immune reconstitution by the graft cells is achieved, organ transplant recipients on medication with an immunosuppressant, and patients with immunodeficiency syndrome. […] For patients who, at the physician's discretion, are assessed as being at high risk for AdV infection/recurrence of disease, the treatment period may be extended for up to 10 weeks, even after the 4-week treatment period is completed, if the AdV is not detected by the two most recent consecutive assays with an interval of 3 days at least. […] Adverse events are evaluated according to the National Cancer Institute Common Terminology Criteria for Adverse Events (NCI CTCAE) version 5.0 (grade 1-5). […]

[1] = Human clinical study of once-weekly IV BCV (Example 4): adverse events; format: in vivo; conditions: cohort 4: 0.4 mg/kg (20 mg/dose if body weight ≥50 kg) IV once weekly
Description: The study duration is at least 9 weeks, based on a screening period of 1 week, a treatment period of at least 4 weeks, and post-treatment follow-up period of 30 days. In the screening, after informed consent has been obtained from the patients, a screening evaluation is conducted to determine eligibility for the study. On the first day of the first week of the treatment period, patients are assigned a dose based on the applicable cohort (see the section 4.1.3 Cohorts 4-6 above). The duration of treatment is a minimum of 4 weeks and a maximum of 14 weeks, and termination is based on the treatment stopping criteria as described below. For patients who, at the physician's discretion, are assessed as being at high risk for AdV infection/recurrence of disease, the treatment period may be extended for up to 10 weeks, even after the 4-week treatment period is completed, if the AdV is not detected by the two most recent consecutive assays with an interval of 3 days at least. All patients are followed up for 30 days after the last dosing. Adverse events are evaluated according to the National Cancer Institute Common Terminology Criteria for Adverse Events (NCI CTCAE) version 5.0 (grade 1-5). In cohort 4, patients are enrolled in the initially planned dosing regimen of 0.4 mg/kg or 20 mg IV weekly. […]

CCCCCCCCCCCCCCCCOCCCOP(=O)(O)CO[C@H](CO)Cn1ccc(N)nc1=O [BCV, [(2S)-1-(4-amino-2-oxopyrimidin-1-yl)-3-hydroxypropan-2-yl]oxymethyl-(3-hexadecoxypropoxy)phosphinic acid]
levels of viral load of AdV during the study period (adenovirus (AdV)): reaches below the LOD | occurrence of adverse events [1]: particularly suppressed
